Experimental findings from patent US20260027103A1, “PHARMACEUTICAL COMPOSITIONS COMPRISING A QUINOLONE COMPOUND FOR IRRITABLE BOWEL SYNDROME” (OTSUKA PHARMACEUTICAL CO., LTD., priority 2022, published 2026) are described below.

For assay [1], the system named is restraint stress (RS) rat model. Briefly: Restraint stress (RS) rat model: body weight, food intake, fecal pellet output. Type of assay: in vivo, Sprague-Dawley (SD) rats.
Excerpt: Male Sprague-Dawley (SD) rats, weighting 200-250 g were purchased from Charles River Laboratories Beijing and housed in an SPF grade animal facility of OSRI in individual ventilated cages (IVC), with 3 rats per cage. All animals were maintained with a 12-hour light/dark cycle and had free access to rodent chow and water. All animal study procedures were in accordance with Animal Welfare Regulations and approved by the Institutional Animal Care and Use Committee (IACUC) of OSRI.
Rats (from group #2 and group #3) were submitted to a 2-hour restraint in a plastic cylinder daily in the PM for 10 consecutive days (D1 to D10). Rats from the control group (group #1) remained in their individual cages, undisturbed throughout the entire experiment. After 3 days of repeated RS modeling, from D4 to D10, the rats from group #2 and group #3 were treated in the morning (4h ahead of PM restraint) with vehicle (5% AG) and the test substance (2.5 mg/kg) respectively for 7 consecutive days. Fecal pellet output was used to estimate distal colonic motility as a validated index (Hong S et al., Gut 2009, 58:202-210). During the 2-hour restraint period, the rat's fecal pellet output was collected and counted, same for the rats in control group during the same 2-hour mock observation period.
Assay [2] shares this test system. In words: Visceromotor response to colorectal distention in RS model. Type of assay: in vivo, Sprague Dawley Rats. The settings on record: 2.5 mg/kg PO, day 7 (4 days post dose), p<0.05 vs RS group, FIG. 5.
Description: (§1) Sprague Dawley Rats were submitted to a 2h restraint in a plastic cylinder daily for 7 consecutive days as described above. In control group, the rats were remained in an individual cage, undisturbed, throughout the experiment.
Colonic distension—A polyethylene balloon (3 cm long, 1.5 cm max. diameter) was secured to tubing attached to a blood pressure meter to be used to perform colonic distension. The balloon was lubricated and placed into the rat's distal colon so that the tip of the balloon was 2 cm proximal to the anus. Using the blood pressure meter distension device, rats were restrained in a plastic containment device and allowed to acclimate for 10 min before testing. The rats received phasic distension (0-100 mmHg in 5-mmHg ascending increments) of the colon until the first contraction of the testicles, tail or abdominal musculature occurred. This visualization was performed by three independent observers. […] Compliance of the colon was not measured given the rapid distension protocol used in this study. The colonic distensions were repeated three times with 5-min interstimulus intervals and the mean pressures at the nociceptive threshold were recorded for each rat.
Statistical significance was either calculated by two-tailed T-test (visceral sensitivity on day 3) or one-way ANOVA using Dunnett's multiple comparison. P<0.05 was considered statistically significant.
The test system of assay [3] is histamine. In words: Urine histamine level by ELISA in RS model. Type of assay: in vivo, Sprague Dawley Rats. As to conditions: rat, 2.5 mg/kg PO, day 7 (4 days post treatment), p<0.01 vs RS group, FIG. 6. In general terms: ELISA stands for enzyme-linked immunosorbent assay.
Description: as §1
Urine samples were collected every day after the restraint. A plastic dish was placed underneath restraint tube and the urine sample was collected. It is immediately transferred into a tube and stored at-800C until further analysis. Histamine was measured with the Histamine ELISA Kit ((CAT #: D751012, BBI) according to the manufacturer's instructions as follows.
Calculate the required number of slats in advance, and take out the kit 30 minutes before the test and restore it to room temperature. • 2. Add 50 μL of standard working liquid and test sample to each reaction hole. The standard needs to be re-drilled. 50 μL of biotin-labeled histamine antibody working solution was added to each reaction well immediately, and the plate was sealed and incubated at 37° C. for 45 min. • 3. […] OD value was measured with 450 nm wavelength of enzyme label instrument. • 9. Draw a standard curve with the concentration of standard substance as the horizontal coordinate and absorbance as the vertical coordinate. • 10. Statistical significance was either calculated by two-tailed T-test (visceral sensitivity on day 3) or one-way ANOVA using Dunnett's multiple comparison. […]

`Cc1c(-c2cnc(N)c(C#N)c2)c(F)cc2c(=O)c(C(=O)O)cn(C3CC3)c12` [OPS-2071, 1-cyclopropyl-6-fluoro-1,4-dihydro-8-methyl-7-(2-amino-3-cyano-5-pyridyl)-4-oxo-3-quinoline-carboxylic acid]: the “body weight / body weight change (BWC) % in RS-IBS model” value in assay [1] (2.5 mg/kg PO QD for 7 days from D4, group #3 vs. RS vehicle group #2, FIGS. 1 and 2) is on record as “body weight drop caused by restraint stress is improved”. The “fecal pellet output during 2-hour restraint” value in assay [1] (2.5 mg/kg PO from day 4, group #3 vs. group #2, FIG. 3) is reported as “a decrease of the fecal pellet output was observed”. For the same molecule, the “food intake (appetite) in RS model” value in assay [1] (2.5 mg/kg PO, monitored from 3 days post treatment initiation, group #3 vs. group #2) is “protective effect on decreased appetite”. In addition, the “visceral sensitivity (visceromotor response to colorectal distention, mmHg)” value in assay [2] is on record as “a decrease in visceral sensitivity”. Further, the urine histamine level result in assay [3] is listed as “decreased”.
